The record followed here is patent publication US12023308B2, “Agents for reversing toxic proteinopathies” (THE BROAD INSTITUTE, INC., priority 2019, dated 2024).

Data set [1] deals with MUC1-fs. Kind of data set: MUC1-fs subcellular distribution (co-localization IF) in P cells. It counts as cell-based, human.
Protocol: Cell nuclei were first identified using Hoechst staining, and cell number was calculated. Cytoplasmic regions were then detected around each nucleus based on combined channels. The cells from the edge of the field were eliminated from the analysis. For the quantification of protein abundance, the total signal intensity value for each antibody was calculated separately in the cell cytoplasm and the average signal per cell was calculated for each well. For quantitation of MUC1-fs cellular distribution and trafficking, the analysis was performed as described in FIG. 13A using the “spot” identification feature for the detection of MUC1-fs and the different organelles.
Detection of MUC1-fs in P cells at baseline and following secretory pathway perturbations was performed using immunoblot and IF analyses. […] For IF experiments (FIGS. 5B-5D and 13A-13C), P cells were plated in 384-well plates at 12,000 cells/well.
Data set [2] relates to MUC1-fs. Kind of data set: Immunoblot analysis of MUC1-fs in P cells under pathway perturbations. The format is cell-based, human. Conditions: for effect on BRD-4780-mediated MUC1-fs clearance (immunoblot): with BRD-4780 (5 μM). For orientation: In western blotting, separated proteins are transferred to a membrane and probed.
Description: Cells were lysed in lysing buffer solution (9803, Cell Signaling Technology) containing protease inhibitors (05892791001, Roche) and phosphatase inhibitors (04906837001, Roche). […] To normalize protein concentration, proteins in the supernatant of cells or of kidney lysates were quantified using the Pierce BCA Protein Assay Kit (23225, Thermo Fisher Scientific®). Normalized protein lysates were then mixed with NuPAGE LDS sample buffer (NP0008, Thermo Scientific) and NuPAGE reducing agent (NP0004, Thermo Scientific) and heated to 75° C. for 10 min prior to SDS-PAGE gel electrophoresis using NuPAGE Tris-Acetate SDS Running Buffer (LA0041, Thermo Scientific) or NuPAGE MES SDS running buffer (NP0002, Thermo Fisher Scientific®) depending on protein molecular weight of interest. Electrophoretically separated proteins were transferred to a nitrocellulose membrane (1704158, BioRad) using Trans-Blot® Turbo™ Blotting System (1704155, BioRad) following manufacturer's protocol. Membranes were blocked in 5% Nonfat Dry Milk (9999S, Cell Signaling Technology) in PBS with 0.1% Tween® 20 (PBS-T), and probed with primary antibody overnight at 4° C. Following three washes with PBS-T, the membranes were incubated with secondary antibody for 1 hr at room temperature, washed three more times in PBS-T, and incubated with Super Signal West Dura (34076, Thermo Fisher Scientific®) or Super Signal West Pico (34087, Thermo Fisher Scientific®) and immunoreactive bands were imaged by G:BOX Chemi XT4 (G:BOX-CHEMI-XT4, Syngene).
Detection of MUC1-fs in P cells at baseline and following secretory pathway perturbations was performed using immunoblot and IF analyses. For immunoblot experiments (FIGS. 5E and 13D), P cells were grown in 6-well plates to high confluence. For IF experiments (FIGS. 5B-5D and 13A-13C), P cells were plated in 384-well plates at 12,000 cells/well. Following 24 hr, cells were treated with 5 μM BRD-4780 or DMSO alone, or in combination with 100 nM Bafilomycin A (B1793, Sigma-Aldrich), or 200 ng/mL Brefeldin A (B7651, Sigma-Aldrich) for a maximum period of 24 hr as indicated. For TMED9 or Nischarin depletion experiments, transduced/transfected P cells were plated either in 96-well plates at 60,000 cells/well for IF (FIGS. 6C, 6D and 14B), or grown in 6-well plates to high confluence for immunoblot detection (FIGS. 6B and 14C). Cells were then treated with 5 μM BRD-4780 or DMSO for 24 hr (for IF detection) or 72 hr (for immunoblot analysis) and were processed accordingly.
Data set [3] concerns MUC1-fs. Kind of data set: MUC1-fs immunofluorescence high-content imaging assay in P cells. It counts as cell-based, human.
Protocol: Cells grown on CellCarrier-96 or -384 well Ultra microplates (PerkinElmer) were fixed 10 min in PBS containing 4% PFA (Electron Microscopy Sciences), permeabilized 15 min in 0.5% Triton X100 (X100-100ML, Sigma-Aldrich), blocked for 1 hr in blocking reagent (100 mM Tris HCL pH8; 150 mM NaCL; 5 g/L Blocking Reagent [11096176001, Roche]) and treated for 1 hr with primary antibodies diluted in blocking reagent (1:500, monoclonal Fab-A-VSH anti-fsMUC1, AbD22655.2, Bio-Rad; 1:2000, monoclonal Mouse anti-MUC1 (CD227), 60137, Stemcell Technologies; 1:200, polyclonal, Mouse anti-GM130, ab169276, Abcam; 1:100, polyclonal, Rabbit anti-TMED9, 216201-AP, Proteintech; 1:800, polyclonal, Rabbit anti-SEC31A, 17913-1-AP, Proteintech; 1:400, monoclonal, Rabbit anti-EEA1 (C45B10), 3288S, Cell signaling technology; 1:100, polyclonal, Rabbit anti-ERGIC-53, E1031, Sigma-Aldrich; 1:400, monoclonal, Mouse anti-LAMP1 (D401S), 15665, Cell signaling technology; 1:1000, polyclonal, Rabbit anti-Calnexin, ab22595, Abcam; 1:2000, monoclonal, Rabbit anti-GM130 (D6B1) XP, 12480, Cell signaling technology; 1:200, monoclonal, Rabbit anti TNG46, ab50595, Abcam; 1:100, monoclonal, Rabbit anti-Rab7 (D95F2) XP, 9367, Cell signaling technology; 1:100, monoclonal, Rabbit anti-Rab11 (D4F5) XP, 5589, Cell signaling technology). Fixed, stained cells were washed three times in PBS and incubated for 1 hr with secondary antibodies in blocking solution (1:500, Alexa Fluor 488® Goat anti-Mouse IgG, A-11029, Thermo Fisher Scientific®; 1:500, Alexa Fluor 647® F(ab′)2-Goat anti-Rabbit IgG, A21246, Thermo Fisher Scientific®; 1:2000, Hoechst 33342, H3570, Thermo Fisher Scientific®), then washed three times in PBS and imaged.
Cell nuclei were first identified using Hoechst staining, and cell number was calculated. Cytoplasmic regions were then detected around each nucleus based on combined channels. The cells from the edge of the field were eliminated from the analysis. For the quantification of protein abundance, the total signal intensity value for each antibody was calculated separately in the cell cytoplasm and the average signal per cell was calculated for each well.
P cells were seeded 24 hr prior to compound treatment at a density of 12,000 cells/well in 384 well Cell Carrier Ultra plates (6057308, Perkin Elmer), pre-coated with 0.25 mg/mL Synthemax II SC Substrate (3535, Corning). Compounds of the repurposing library set (Corsello et al., 2017) were used at 5 doses (35, 3.5, 0.35, 0.035 and 0.0035 μM) for the primary screen and 10 doses (16, 5.6, 1.8, 0.6, 0.21, 0.07, 0.02, 0.008, 0.002 and 0.0008 μM) for the following screens. The compounds, in two replicates, were transferred from compound source plates to the cell plates using the HighRes Pin Tool. […] After 48 hr incubation, cells were fixed for 20 min in 4% PFA (Electron Microscopy Sciences) in PBS, washed twice, then permeabilized (10 min) with 0.5% Triton-X100 (X100-100ML, Sigma-Aldrich) in PBS and washed once more. Cells were blocked for 10 min at RT with Blocking solution (100 mM Tris HCL pH8; 150 mM NaCL; 5 g/L Blocking Reagent [11096176001, Roche]), then incubated 90 min at RT with one of the following primary antibodies in Roche Blocking solution: 1:500, monoclonal Fab-A-VSH anti-MUC1-fs, AbD22655.2, Bio-Rad; 1:2000, monoclonal mouse anti-MUC1 (214D4), 05-652-KC, Millipore; 1:1000, monoclonal, Rabbit anti-GM130 (D6B1) XP, 12480, Cell signaling technology. […]
A short description of data set [4]: Dose response exposure PK study in male 129-ELITE mice. It counts as in vivo, mouse. As to conditions: single p.o. doses. How it is done:
4) A pharmacokinetic study was performed by Charles River Labs (CRL) (Worcester, Mass., USA) in fed male 129-ELITE mice (study EF-0024-DA-MI) to determine the dose response exposure of BRD-4780, BRD-1365 and BRD-7709 in plasma, kidney, liver and eye. Brain exposure to BRD-4780 at 30 mg/kg was also evaluated A single dose of BRD-4780 was administered at 30.0 mg/kg or 100 mg/kg orally (p.o) in a clear solution of 5% dextrose in water (D5W). For BRD-1365 and BRD-7709, a single dose of either compound was administered at 10.0 mg/kg, 30.0 mg/kg, 50.0 mg/kg or 100 mg/kg orally (p.o) in a clear solution of 5% dextrose in water (D5W). Blood, kidney, liver and eye tissue were collected from n=3 mice per dose group at six time points post p.o. dose administration (1, 2, 6, 10, 16 and 24 hours) with all three compounds. Brain tissue was collected from n=3 mice per dose group at six time points post p.o. dose administration (1, 2, 6, 10, 16 and 24 hours) with BRD-4780 at 30 mg/kg. Plasma obtained by centrifugation and tissue fragments were homogenized. Plasma and tissue drug concentration was determined by LC-MS/MS and reported as drug concentration in ng/mL for plasma and ng/mg for kidney, liver and eye tissue, plotted as the mean±standard deviation concentration for males for BRD-4780 ([…]), BRD-1365 (FIG. 11K) and BRD-7709 (FIG. 11M). Standard pharmacokinetic parameters were calculated for males for BRD-4780 ([…]), BRD-1365 (FIG. 11O) and BRD-7709 (FIG. 11P).

The test system of data set [5] is P cells. Kind of data set: P cell viability upon THP treatment (live imaging, rescue). The format is cell-based, human. As to conditions: Homo sapiens; DMSO pre-treatment, 5 days THP.
Protocol: To study apoptosis and cell death in N and P cells, 384 well Cell Carrier Ultra plates (6057308, Perkin Elmer), pre-coated with 0.25 mg/mL Synthemax II SC Substrate (3535, Corning) were used. […] CellEvent Caspase-3/7 Green Detection Reagent (C10423, Thermo Fisher Scientific®) and DRAQ7 (DR71000, Biostatus) were used at 1:5000 to monitor apoptosis and cell death respectively. Cells were imaged daily during 4 days to monitor viability and image analysis was performed as described below. For rescue experiments, P cells were plated on 96 well Cell Carrier Ultra microplates (6055302, Perkin Elmer) at 30,000 cells/well and cultured for 24 hr. BRD-4780 (5 μM) was applied as a pretreatment for 48 hr prior to thapsigargin exposure and throughout the experiment. Thapsigargin was applied at increasing doses and the plates were imaged daily thereafter.
For the measurement of P cell rescue from THP-induced cell death by BRD-4780 (FIGS. 3I and 3J), no dyes were added to avoid any influence on cell growth. Digital phase contrast images were used for cell identification and count, and autofluorescence in the far-red channel was used for detection of dead cells. Cells with no autofluorescence were identified and calculated as live cell.
P cells were seeded 12 hr prior to profiling compound treatment at a density of 12,000 cells/well in 384 well Cell Carrier Ultra plates (6057308, Perkin Elmer), pre-coated with 0.25 mg/mL Synthemax II SC Substrate (3535, Corning). After 24 hr, CellEvent Caspase-3/7 Green Detection Reagent (C10423, Thermo Fisher Scientific®) and DRAQ7 (DR71000, Biostatus) were added at 1:5000 final dilution in the presence or absence of thapsigargin (100 nM). Cells were imaged daily during 7 days to monitor viability. Image acquisition and analysis was done as described above and viability was assessed as fraction of live cells at day 5 of thapsigargin treatment, and at the day 6 for DMSO.
Data set [6] relates to P cells. Kind of data set: THP-induced apoptosis (caspase 3/7) in N and P cells. It counts as cell-based, human. Conditions: P cells compared to N cells, 72 hour.
Data set [7] has as its system total MUC1 mRNA. Kind of data set: MUC1 transcription assay (RT-PCR profiling screen) in P cells. It counts as cell-based, human. Conditions: preliminary in vitro experiments in P cells. How it is done: qPCR was performed using a previously described protocol (Bittker, 2012). P cells seeded at 2000 cells/well in 384-well, clear bottom, white wall plates were grown for 24 hr, then treated with profiling compounds transferred by pinning to duplicate plates. JQ1 (250 nM) and DMSO were used for controls as above. After 24 hr, cells were washed and cDNAs were made using ABI Cells-to-Ct kit (Thermo Fisher Scientific®, Waltham, Mass.). MUC1 and HMBS delta Cp values were determined using a Roche LightCycler 480 Instrument and TaqMan probes for MUC1 FAM (4351368 assay ID Hs00159357_m1) and HMBS VIC (4448486-assay ID Hs00609297_m1) (Thermo Fisher Scientific®, Waltham, Mass.), in 5 μL reactions. The fold change effect of the compounds on total MUC1 mRNA was normalized to JQ1 and DMSO controls, as described above.

Data set [8] concerns ATF6. Kind of data set: Immunoblot of BiP in THP-treated P cells. It counts as cell-based, human. Conditions: P cells treated with THP (100 nM). How it is done: (§1) Cells were lysed in lysing buffer solution (9803, Cell Signaling Technology) containing protease inhibitors (05892791001, Roche) and phosphatase inhibitors (04906837001, Roche). Mouse kidney tissues were lysed by tissue homogenizer (Tissue-Tearo™, BioSpec Products) in lysing buffer solution containing inhibitors as above, followed by 20 min rocking at 4° C. and centrifugation at 16,000 g, 4° C. for 5 min. To normalize protein concentration, proteins in the supernatant of cells or of kidney lysates were quantified using the Pierce BCA Protein Assay Kit (23225, Thermo Fisher Scientific®). Normalized protein lysates were then mixed with NuPAGE LDS sample buffer (NP0008, Thermo Scientific) and NuPAGE reducing agent (NP0004, Thermo Scientific) and heated to 75° C. for 10 min prior to SDS-PAGE gel electrophoresis using NuPAGE Tris-Acetate SDS Running Buffer (LA0041, Thermo Scientific) or NuPAGE MES SDS running buffer (NP0002, Thermo Fisher Scientific®) depending on protein molecular weight of interest. Electrophoretically separated proteins were transferred to a nitrocellulose membrane (1704158, BioRad) using Trans-Blot® Turbo™ Blotting System (1704155, BioRad) following manufacturer's protocol. Membranes were blocked in 5% Nonfat Dry Milk (9999S, Cell Signaling Technology) in PBS with 0.1% Tween® 20 (PBS-T), and probed with primary antibody overnight at 4° C. […]

Data set [9] relates to IRE. Kind of data set: RT-PCR analysis of XBP1 splicing in THP-treated P cells. It counts as cell-based, human. Conditions: P cells treated with THP (100 nM). How it is done:
XBP1 splicing was analyzed by standard RT-PCR. Briefly, RNA was isolated from patient cells using a RNeasy Mini Kit (74106, Qiagen). One μg of RNA was converted to cDNA using the SuperScript First-Strand Synthesis system for RT-PCR (11904-018, Invitrogen). The primer sequences used are as follows: Human XBP1 Forward Primer: 5′ TTACGAGAGAAAACTCATGGCC 3′ (SEQ ID NO: 12). Human XBP1 Reverse Primer: 5′ GGGTCCAAGTTGTCCAGAATGC 3′ (SEQ ID NO: 13). PCR was carried out on 3 μL of the resulting cDNA solution using the OneTaq Hot Start Master Mix (M0484S, NEB). Five μL of PCR product was run on a 2% agarose gel for 90 min at 150 V.

Data set [10] concerns PERK. Kind of data set: Immunoblot of eIF2a phosphorylation in P cells. It counts as cell-based, human. The protocol:
as §1

Like-named read-outs stand apart in the source and are kept apart here.

As to `CO/C1=C\C(C)=C\[C@@H](C)[C@@H](O)[C@@H](C)C/C(C)=C/C=C/[C@H](OC)[C@@H]([C@@H](C)[C@@H](O)[C@H](C)[C@@]2(O)C[C@@H](O)[C@H](C)[C@@H](C(C)C)O2)OC1=O` [Bafilomycin A], the MUC1-fs subcellular distribution result in data set [1] is listed as “accumulation of MUC1-fs in the late secretory pathway”. Further, in data set [2], the “effect on BRD-4780-mediated MUC1-fs clearance (immunoblot)” value (“effect” below) is reported as “prevented BRD-4780 from clearing mutant MUC1-fs”.

For the compound `CC(C)[C@@H]1[C@H]2CC[C@H](C2)[C@H]1N` (single isomer, unassigned) [BRD-7709], in data set [3] (high-content imaging assay), the “FS MUC1 cytoplasm EMax” value was −39%. The IC50 – broadly, the midpoint of a concentration-inhibition curve – in data set [3] (high-content imaging assay; read-out: FS MUC1 cytoplasm IC50) came out at 0.66 µM. Also, in data set [4], the “dose proportionality of AUC exposures” value was “nearly dose proportional”.

As for `CC(C)C[C@H](NC(=O)[C@H](Cc1ccccc1)NC(=O)c1cnccn1)B(O)O` [Bortezomib], the “effect” value in data set [2] was “did not affect MUC1-fs removal by BRD-4780”.

`C/C=C(/C)C(=O)O[C@H]1C(C)=C2[C@H]([C@@H]1OC(=O)CCCCCCC)[C@@](C)(OC(C)=O)C[C@H](OC(=O)CCC)[C@@]1(O)[C@H]2OC(=O)[C@@]1(C)O` [THP, thapsigargin, reference compound]: in [5], the EC50 (usually the midpoint of the concentration-response curve) turned out to be 0.017 µM. The “susceptibility of P cells to THP-induced apoptosis” value in data set [6] is given as “higher susceptibility to apoptosis compared to N cells”.

Regarding `Cc1sc2c(c1C)C(c1ccc(Cl)cc1)=N[C@@H](CC(=O)OC(C)(C)C)c1nnc(C)n1-2` [JQ1, reference compound], the “transcriptional suppression of both MUC1-fs and MUC1-wt” value in [7] was 100%.

For PF-429242, the “ATF6 activation (BiP abundance)” value in [8] is “dose-dependent reduction of BiP abundance”. Besides, the “MUC1-fs abundance (immunoblot)” value in [2] (10 μM, 24 hours) was “MUC1-fs accumulation”.

As for `Cc1cc(=O)oc2c(C=O)c(O)ccc12` [Compound 4μ8c], the “IRE activation (XBP1 splicing)” value in data set [9] is listed as “dose-dependent inhibition of XBP1 splicing”.

As for `Cc1cccc(CC(=O)N2CCc3c2ccc(-c2cn(C)c4ncnc(N)c24)c3F)n1` [GSK2656157], the “PERK activation (eIF2a phosphorylation)” value in data set [10] is reported as “dose-dependent reduction of eIF2a phosphorylation”.

Take `C[C@H]1CCC/C=C/[C@@H]2C[C@H](O)C[C@H]2[C@H](O)/C=C/C(=O)O1` [BFA, Brefeldin A]: the MUC1-fs subcellular distribution entry in [1] was “MUC1-fs accumulation in the ER”. In addition, the “effect” value in data set [2] is listed as “abrogated the effect of BRD-4780 on MUC1-fs clearance”.

As for `CC(C)[C@H]1[C@@H]2CC[C@@H](C2)[C@@H]1N` (single isomer, unassigned) [BRD-1365], the “FS MUC1 cytoplasm EMax” value in data set [3] (high-content imaging assay) is −39%. For the same compound, in data set [3] (read-out: FS MUC1 cytoplasm IC50; high-content imaging assay), the 50% inhibitory concentration (IC50) was determined as 0.73 µM. In addition, in data set [4], the “dose proportionality of AUC exposures” value was “not dose proportional”.
